Experimental data taken from ChEMBL document CHEMBL4765295, “Synthesis, pharmacological profile and 2D-QSAR studies of curcumin-amino acid conjugates as potential drug candidates” (Eur J Med Chem, 2020).
In brackets after ≈: the same amount, converted by molar mass. Several values for one entry are separate records, joined by “and”; a condition that tells them apart may be missing. Equal entries are not always repeated.

Assays:
[1] = tested on: Splenocyte; experiment: Immunomodulatory activity in Swiss albino mouse splenocytes assessed as cell viability at 10 uM by measuring inhibition of stimulation index incubated for 72 hrs in presence of mitogenic stimulus phytohaemagglutinin by MTT assay relative to indomethacin; type: functional; conditions: read-out: Activity
[2] = tested on: Rattus norvegicus; experiment: Antiinflammatory activity in Wistar rat model of carrageenan-induced paw edema assessed as reduction in thickness of paw edema at 10 mg/kg, ip pretreated for 1 hr followed by carrageenan challenge and measured after 2 hrs (reference value: 2.06 +/-0.09 mm); type: functional; conditions: time 3 hrs
[3] = tested on: Salmonella typhimurium; experiment: Antibacterial activity against Salmonella typhimurium ATCC 19430 incubated for 18 hrs by agar dilution assay; type: functional, Salmonella enterica subsp. enterica serovar Typhimurium; conditions: Salmonella enterica
[4] = tested on: Splenocyte; experiment: Immunomodulatory activity in Swiss albino mouse splenocytes assessed as cell viability at 10 uM by measuring stimulation index incubated for 72 hrs in presence of mitogenic stimulus phytohaemagglutinin by MTT assay (reference value: 1.00 +/- 0.24); type: functional
[5] = tested on: Rattus norvegicus; experiment: Anti-inflammatory activity in Wistar rat assessed as inhibition of carrageenan-induced paw edema at 10 mg/kg, ip pretreated for 1 hr followed by carrageenan challenge and measured after 4 hr relative to indomethacin; type: functional; conditions: time 5 hrs
[6] = tested on: Rattus norvegicus; experiment: Antiinflammatory activity in Wistar rat model of carrageenan-induced paw edema assessed as reduction in thickness of paw edema at 10 mg/kg, ip pretreated for 1 hr followed by carrageenan challenge and measured after 24 hrs (reference value: 0.83 +/-0.08 mm); type: functional; conditions: time 25 hrs
[7] = tested on: Rattus norvegicus; experiment: Antiinflammatory activity in Wistar rat model of carrageenan-induced paw edema assessed as reduction in thickness of paw edema at 10 mg/kg, ip pretreated for 1 hr followed by carrageenan challenge and measured after 3 hrs (reference value: 1.79 +/-0.07 mm); type: functional; conditions: time 4 hrs
[8] = tested on: Rattus norvegicus; experiment: Anti-inflammatory activity in Wistar rat assessed as inhibition of carrageenan-induced paw edema at 10 mg/kg, ip pretreated for 1 hr followed by carrageenan challenge and measured after 3 hr relative to control (reference value: 0.00 +/-0.1 %); type: functional; conditions: time 4 hrs
[9] = tested on: Rattus norvegicus; experiment: Anti-inflammatory activity in Wistar rat assessed as inhibition of carrageenan-induced paw edema at 10 mg/kg, ip pretreated for 1 hr followed by carrageenan challenge and measured after 4 hr relative to control (reference value: 0.00 +/-0.4 %); type: functional; conditions: time 5 hrs
[10] = tested on: Peritoneal macrophage; experiment: Antiinflammatory activity in […] mouse Peritoneal macrophages assessed as inhibition of LPS-induced NO production at 10 uM preincubated for 1 hr followed by LPS stimulation measured after 24 hrs by Griess method relative to control (reference value: 0.0 %); type: functional; parameters: scale not given: the % may be the effect or the level left; conditions: time 25 hrs
[11] = tested on: Candida albicans; experiment: Antifungal activity against Candida albicans incubated for 18 to 24 hrs by CLSI method; type: functional; conditions: time 18-24 hrs
[12] = tested on: Peritoneal macrophage; experiment: Antiinflammatory activity in […] mouse Peritoneal macrophages assessed as reduction in LPS-induced NO production by measuring reduction in stimulation index at 10 uM preincubated for 1 hr followed by LPS stimulation measured after 24 hrs by Griess method (reference value: 27.31 +/- 2.56 uM); type: functional; conditions: time 25 hrs
[13] = tested on: Pseudomonas aeruginosa; experiment: Antibacterial activity against Pseudomonas aeruginosa ATCC 27853 incubated for 18 hrs by agar dilution assay; type: functional
[14] = tested on: Rattus norvegicus; experiment: Anti-inflammatory activity in Wistar rat assessed as inhibition of carrageenan-induced paw edema at 10 mg/kg, ip pretreated for 1 hr followed by carrageenan challenge and measured after 2 hr relative to control (reference value: 0.00 +/-0.03 %); type: functional; conditions: time 3 hrs
[15] = tested on: Rattus norvegicus; experiment: Antiinflammatory activity in Wistar rat model of carrageenan-induced paw edema assessed as reduction in thickness of paw edema at 10 mg/kg, ip pretreated for 1 hr followed by carrageenan challenge and measured after 4 hrs (reference value: 1.40 +/-0.10 mm); type: functional; conditions: time 5 hrs
[16] = tested on: Rattus norvegicus; experiment: Anti-inflammatory activity in Wistar rat assessed as inhibition of carrageenan-induced paw edema at 10 mg/kg, ip pretreated for 1 hr followed by carrageenan challenge and measured after 24 hr relative to control (reference value: 0.00 +/-0.3 %); type: functional; conditions: time 25 hrs
[17] = tested on: Streptococcus pyogenes; experiment: Antibacterial activity against Streptococcus pyogenes ATCC 19615 incubated for 18 hrs by agar dilution method; type: functional
[18] = tested on: Rattus norvegicus; experiment: Antiinflammatory activity in Wistar rat model of carrageenan-induced paw edema assessed as reduction in thickness of paw edema at 10 mg/kg, ip pretreated for 1 hr followed by carrageenan challenge and measured after 1 hr (reference value: 2.41 +/-0.05 mm); type: functional; conditions: time 1 hr after carrageenan
[19] = tested on: Staphylococcus aureus; experiment: Antibacterial activity against Staphylococcus aureus ATCC 25923 incubated for 18 hrs by agar dilution method; type: functional
[20] = tested on: Rattus norvegicus; experiment: Anti-inflammatory activity in Wistar rat assessed as inhibition of carrageenan-induced paw edema at 10 mg/kg, ip pretreated for 1 hr followed by carrageenan challenge and measured after 1 hr relative to control (reference value: 0.00 +/-0.02 %); type: functional; conditions: time 2 hrs

Row | MIC [3] | MIC [11] | MIC [13] | MIC [17] | MIC [19] | SMILES | viability at 10 µM [1] [%] | Activity [2] [mm] | Activity_index [4] | inhibition in vivo at 10 mg/kg [5] [%] | Activity [6] [mm] | Activity [7] [mm] | inhibition in vivo at 10 mg/kg [8] [%] | inhibition in vivo at 10 mg/kg [9] [%] | Activity [10] [%] | Activity [12] [µM] | inhibition in vivo at 10 mg/kg [14] [%] | Activity [15] [mm] | inhibition in vivo at 10 mg/kg [16] [%] | Activity [18] [mm] | inhibition in vivo at 10 mg/kg [20] [%]
1 | 0.25 µg/mL and 0.226 µM | 0.5 µg/mL and 0.452 µM | 2 µg/mL and 1.81 µM | 0.125 µg/mL and 0.113 µM | 0.25 µg/mL and 0.226 µM | COc1cc(/C=C/C(=O)/C=C(O)/C=C/c2ccc(OC(=O)[C@H](Cc3ccccc3)NC(=O)OCC3c4ccccc4-c4ccccc43)c(OC)c2)ccc1OC(=O)[C@H](Cc1ccccc1)NC(=O)OCC1c2ccccc2-c2ccccc21 | 68.1 | 1.22 | 1.78 | 69 | 0.79 | 0.82 | 54 | 60 | 31.01 | 18.84 | 41 | 0.56 | 5 | 2.17 | 10
2 | 0.5 µg/mL and 0.56 µM | 0.5 µg/mL and 0.56 µM | 1 µg/mL and 1.12 µM | 0.125 µg/mL and 0.14 µM | 0.5 µg/mL and 0.56 µM | COc1cc(/C=C/C(=O)/C=C(O)/C=C/c2ccc(OC(=O)[C@H](CCC(N)=O)NC(=O)OCc3ccccc3)c(OC)c2)ccc1OC(=O)[C@H](CCC(N)=O)NC(=O)OCc1ccccc1 | 51.1 | 1.09 | 2.37 | 51 | 0.8 | 0.99 | 45 | 44 | – | – | 47 | 0.78 | 4 | 1.18 | 51
3 | 0.25 µg/mL and 0.29 µM | 1 µg/mL and 1.16 µM | 1 µg/mL and 1.16 µM | 0.125 µg/mL and 0.145 µM | 0.25 µg/mL and 0.29 µM | COc1cc(/C=C/C(=O)/C=C(O)/C=C/c2ccc(OC(=O)[C@H](Cc3ccccc3)NC(=O)OC(C)(C)C)c(OC)c2)ccc1OC(=O)[C@H](Cc1ccccc1)NC(=O)OC(C)(C)C | 47.2 | 1.16 | 2.56 | 68 | 0.41 | 0.85 | 53 | 59 | – | – | 44 | 0.58 | 51 | 1.47 | 39

Second part, the compound before the results:

Row | SMILES | MIC [3] | MIC [11] | MIC [13] | MIC [17] | MIC [19] | viability at 10 µM [1] [%] | Activity [2] [mm] | Activity_index [4] | inhibition in vivo at 10 mg/kg [5] [%] | Activity [6] [mm] | Activity [7] [mm] | inhibition in vivo at 10 mg/kg [8] [%] | inhibition in vivo at 10 mg/kg [9] [%] | Activity [10] [%] | Activity [12] [µM] | inhibition in vivo at 10 mg/kg [14] [%] | Activity [15] [mm] | inhibition in vivo at 10 mg/kg [16] [%] | Activity [18] [mm] | inhibition in vivo at 10 mg/kg [20] [%]
4 | COc1cc(/C=C/C(=O)/C=C(O)/C=C/c2ccc(OC(=O)[C@@H](NC(=O)OC(C)(C)C)C(C)C)c(OC)c2)ccc1OC(=O)[C@@H](NC(=O)OC(C)(C)C)C(C)C | 0.25 µg/mL and 0.326 µM | 1 µg/mL and 1.3 µM | 2 µg/mL and 2.61 µM | 2 µg/mL and 2.61 µM | 0.25 µg/mL and 0.326 µM | 65.6 | 1.57 | 1.84 | 49 | 0.58 | 1.34 | 25 | 43 | 29.35 | 19.29 | 24 | 0.8 | 30 | 2.09 | 13
5 | COc1cc(/C=C/C(=O)/C=C(O)/C=C/c2ccc(OC(=O)[C@@H](C)NC(=O)OC(C)(C)C)c(OC)c2)ccc1OC(=O)[C@@H](C)NC(=O)OC(C)(C)C | 0.25 µg/mL and 0.352 µM | 0.5 µg/mL and 0.703 µM | 0.25 µg/mL and 0.352 µM | 1 µg/mL and 1.41 µM | 0.125 µg/mL and 0.176 µM | 58.3 | 1.46 | 2.07 | 48 | 0.52 | 1.09 | 39 | 42 | 23.82 | 20.81 | 29 | 0.81 | 37 | 1.87 | 22
6 | COc1cc(/C=C/C(=O)/C=C(O)/C=C/c2ccc(OC(=O)C(C)NC(=O)OC(C)(C)C)c(OC)c2)ccc1OC(=O)C(C)NC(=O)OC(C)(C)C (stereo unspecified) | 0.25 µg/mL and 0.352 µM | 0.5 µg/mL and 0.703 µM | 0.25 µg/mL and 0.352 µM | 0.125 µg/mL and 0.176 µM | 0.25 µg/mL and 0.352 µM | 67.9 | 1.74 | 1.78 | 46 | 0.59 | 1.34 | 25 | 40 | 30.88 | 18.88 | 16 | 0.84 | 29 | 2.15 | 11
7 | COc1cc(/C=C/C(=O)/C=C(O)/C=C/c2ccc(OC(=O)[C@@H](NC(=O)OCC3c4ccccc4-c4ccccc43)C(C)C)c(OC)c2)ccc1OC(=O)[C@@H](NC(=O)OCC1c2ccccc2-c2ccccc21)C(C)C | 0.5 µg/mL and 0.494 µM | 0.5 µg/mL and 0.494 µM | 0.5 µg/mL and 0.494 µM | 0.5 µg/mL and 0.494 µM | 0.25 µg/mL and 0.247 µM | 47.5 | 1.05 | 2.55 | 61 | 0.44 | 0.9 | 50 | 53 | 12.46 | 23.91 | 49 | 0.66 | 47 | 1.88 | 22
8 | O=C(O)c1cn(C2CC2)c2cc(N3CCNCC3)c(F)cc2c1=O [CIPROFLOXACIN] | 2.4 µg/mL (≈ 7.24 µM) | – | 4.8 µg/mL (≈ 14.5 µM) | – | – | – | – | – | – | – | – | – | – | – | – | – | – | – | – | –
9 | CCn1cc(C(=O)O)c(=O)c2cc(F)c(N3CCNCC3)cc21 [NORFLOXACIN] | 2.4 µg/mL (≈ 7.52 µM) | – | 4.8 µg/mL and 15000 µM | – | – | – | – | – | – | – | – | – | – | – | – | – | – | – | – | –
10 | C[C@@H]1[C@H](O)[C@@H](C)/C=C/C=C/C=C/C=C/C=C/C=C/C=C/[C@H](O[C@@H]2O[C@H](C)[C@@H](O)[C@H](N)[C@@H]2O)C[C@@H]2O[C@](O)(C[C@@H](O)C[C@@H](O)[C@H](O)CC[C@@H](O)C[C@@H](O)CC(=O)O[C@H]1C)C[C@H](O)[C@H]2C(=O)O [AMPHOTERICIN B] | – | 0.39 µg/mL and 0.422 µM | – | – | – | – | – | – | – | – | – | – | – | – | – | – | – | – | – | –
